molecular target: T1, PrP^Sc (Mus musculus, UniProt P04925); type: binding; set-up: key to Western Blot: −: Visually evaluated relative signal intensity; +/−: Visually evaluated relative signal intensity; +: Visually evaluated relative signal intensity; ++: Visually evaluated relative signal intensity; +++: Visually evaluated relative signal intensity; ++++: Visually evaluated relative signal intensity; +++++: Visually evaluated relative signal intensity

Q: Which “Western Blot” value does the source give for “(GGG)RPMIHFGNDWEDRYYRENMYR(GG)C [SEQ ID NO: 76]” here?
A: The value was “−”.

Q: For “DDDAGAAAAGAVVGGLGGYMLGSAMDDD [SEQ ID NO: 86]”, which “Western Blot” value is on record?
A: The value was “−”.

Q: For PHGGGWGQ [SEQ ID NO: 71], which “Western Blot” value is on record?
A: The value was “−”.

Q: How did the “Western Blot” value turn out when “C(GG)GGWGQGGGTHNQWNKPSKPKTNLKHV(GGGG)C [SEQ ID NO: 40]” was run?
A: The value was “+”.

Q: Which “Western Blot” value does the source give for (GGG)GPKRKGPK [SEQ ID NO: 73] here?
A: The value was “+”.

Q: Which “Western Blot” value does the source give for GGTHNQWNKPSKPKTN [SEQ ID NO: 54] here?
A: Its value is “+”.

Q: For (GGG)QWNKASKPKTN [SEQ ID NO: 99], which “Western Blot” value is on record?
A: The value was “+/−”.

Q: (GGG)KKRAKPGG [SEQ ID NO: 96] was tested. Which “Western Blot” value did it give?
A: The value was “+ and ++”.

Q: “(GGG)KKRPKPGGGQWNKPSKPKTN [SEQ ID NO: 81]” was tested. Which “Western Blot” value did it give?
A: Its value is “+”.

Q: For (GGG)KKRPKAGG [SEQ ID NO: 97], which “Western Blot” value is on record?
A: Its value is “+ and ++”.

Q: Which “Western Blot” value does the source give for (GGG)QANKPSKPKTN [SEQ ID NO: 89] here?
A: Its value is “+ and +++”.

Q: (GGG)QWNKPSKPATN [SEQ ID NO: 94] was tested. Which “Western Blot” value did it give?
A: Its value is “− and +”.

Q: For (GGG)KPSKPK [SEQ ID NO: 80], which “Western Blot” value is on record?
A: Its value is “−”.

Q: Which “Western Blot” value does the source give for “GGWGQGGGTHNQWNKPSKPKTNLKHV(GGGG) [SEQ ID NO: 37]” here?
A: The value was “+”.

Q: With (GGG)NKPSKPK [SEQ ID NO: 79] as the substance, how does the “Western Blot” value read?
A: The value was “−”.

Q: For GGWGQGGGTHNQWNKPSKPKTN [SEQ ID NO: 53], which “Western Blot” value is on record?
A: Its value is “+”.

Q: How did the “Western Blot” value turn out when DKDKGGVGALAGAAVAAGGDKDK [SEQ ID NO: 88] was run?
A: The value was “−”.

Q: Which “Western Blot” value does the source give for (GGG)AKRPKPGG [SEQ ID NO: 104] here?
A: The value was “+”.

Q: How did the “Western Blot” value turn out when (GGG)WNKPSKPKT [SEQ ID NO: 75] was run?
A: Its value is “−”.

Q: For (GGG)QWNKASKAKTN [SEQ ID NO: 95], which “Western Blot” value is on record?
A: Its value is “−”.

Q: Which “Western Blot” value does the source give for QWNKPSKPKTN(GGG) [SEQ ID NO: 50] here?
A: Its value is “+”.

Q: With (GGG)QWNKPSAPKTN [SEQ ID NO: 93] as the substance, how does the “Western Blot” value read?
A: The value was “− and +”.

Q: (GGG)KARPKPGG [SEQ ID NO: 105] was tested. Which “Western Blot” value did it give?
A: Its value is “+”.

Q: Which “Western Blot” value does the source give for (KKK)AGAAAAGAVVGGLGG [SEQ ID NO: 65] here?
A: Its value is “++”.

Q: For PHGGGWGQHGGSWGQPHGGSWGQ [SEQ ID NO: 69], which “Western Blot” value is on record?
A: Its value is “−”.

Q: With (GGG)KKRAKAGG [SEQ ID NO: 98] as the substance, how does the “Western Blot” value read?
A: Its value is “+”.

Q: How did the “Western Blot” value turn out when (GGG)KKRPKPGGWNTGG [SEQ ID NO: 67] was run?
A: The value was “++”.

Q: With “(GGG)KKRPKPGGWNTGGSRYPGQGS [SEQ ID NO: 66]” as the substance, how does the “Western Blot” value read?
A: The value was “+”.

Q: With “(GGGG)GGWGQGGGTHNQWNKPSKPKTNLKHV [SEQ ID NO: 36]” as the substance, how does the “Western Blot” value read?
A: Its value is “+”.

Q: QWNKPSKPKTNLKHV(GGG) [SEQ ID NO: 77] was tested. Which “Western Blot” value did it give?
A: Its value is “++”.

Q: With (GGG)KKRPAPGG [SEQ ID NO: 107] as the substance, how does the “Western Blot” value read?
A: Its value is “+”.

Q: Which “Western Blot” value does the source give for “(KKK)AGAAAAGAVVGGLGGYMLGSAM [SEQ ID NO: 57]” here?
A: Its value is “+”.

Q: Which “Western Blot” value does the source give for “RPMIHFGNDWEDRYYRENMYR(GGG) [SEQ ID NO: 44]” here?
A: Its value is “−”.

Q: Which “Western Blot” value does the source give for “KKKAGAAAAGAVVGGLGGYMLGSAMKKK [SEQ ID NO: 84]” here?
A: The value was “+”.

Q: Which “Western Blot” value does the source give for “QWNKPSKPKTN(GGG)QWNKPSKPKTN [SEQ ID NO: 51]” here?
A: The value was “+++”.

Q: For “(GGGG)C(GG)GGWGQGGGTHNQWNKPSKPKTNLKHV(GGGG)C [SEQ ID NO: 35]”, which “Western Blot” value is on record?
A: Its value is “+”.

Q: How did the “Western Blot” value turn out when (GGG)QWNKPSKAKTN [SEQ ID NO: 91] was run?
A: The value was “− and +”.

Q: With “DDDAGAAAAGAVVGGLGGYMLGSAM [SEQ ID NO: 83]” as the substance, how does the “Western Blot” value read?
A: The value was “−”.

Q: For (GGG)KKRPKPGGGKKRPKPGG [SEQ ID NO: 72], which “Western Blot” value is on record?
A: Its value is “+”.

Q: (GGG)QWNAPSKPKTN [SEQ ID NO: 92] was tested. Which “Western Blot” value did it give?
A: The value was “− and +”.

Q: For (GGG)KKAPKAGG [SEQ ID NO: 108], which “Western Blot” value is on record?
A: The value was “+”.

Q: For (GGG)NNKQSPWPTKK [SEQ ID NO: 87], which “Western Blot” value is on record?
A: The value was “−”.

Q: For (GGG)QWNKASKPKTN [SEQ ID NO: 90], which “Western Blot” value is on record?
A: The value was “−”.

Q: With “(GGG)KKKKKKKK (GGGKKKKKKKK) [SEQ ID NO: 85]” as the substance, how does the “Western Blot” value read?
A: Its value is “+^3”.

Q: (GGG)KKRPKPGG [SEQ ID NO: 68] was tested. Which “Western Blot” value did it give?
A: The value was “+++”.

Q: And the “binding to PrPSc in infected mouse brain homogenate samples (Western blot, FIG. 4)” value?
A: The value was “strong binding”.

Q: How did the “Western Blot” value turn out when “KKKAGAAAAGAVVGGLGGYMLGSAMDDD [SEQ ID NO: 82]” was run?
A: Its value is “−”.

Q: For (GGG)KKAPKPGG [SEQ ID NO: 106], which “Western Blot” value is on record?
A: Its value is “+”.

Q: Which “Western Blot” value does the source give for PHGGGWGQPHGGSWGQ [SEQ ID NO: 70] here?
A: The value was “−”.

Q: How did the “Western Blot” value turn out when “(GG)C(GGG)RPMIHFGNDWEDRYYRENMYR(GGG)C [SEQ ID NO: 46]” was run?
A: Its value is “+”.

Q: (GGG)QWNKPSKPKTN [SEQ ID NO: 14] was tested. Which “Western Blot” value did it give?
A: The value was “+++”.

molecular target: T1, PrP^Sc; type: binding; remark: another data set of the same source
Target sequence in this assay (P04925 23-230 limits assumed): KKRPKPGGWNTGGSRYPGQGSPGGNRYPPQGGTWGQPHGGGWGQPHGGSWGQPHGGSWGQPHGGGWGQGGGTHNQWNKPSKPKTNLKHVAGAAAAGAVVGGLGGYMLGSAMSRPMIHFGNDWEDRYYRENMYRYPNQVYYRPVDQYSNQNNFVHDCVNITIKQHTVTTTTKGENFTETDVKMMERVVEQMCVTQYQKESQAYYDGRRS

Q: For “QWNKPSKPKTN(GGG)QWNKPSKPKTN [SEQ ID NO: 51]”, which “ELISA A405nm” value is on record?
A: The value was “.923”.

— patent US7439041B2 (Novartis Vaccines and Diagnostics, Inc., priority 2003, dated 2008)
